A short description of data set [1]: Dissolution of hydroxyapatite previously treated with phytate at pH 7.4. The following applies: 1, 6 and 12 uM phytate fixed at pH 7.4 stage; dissolution at pH 5.0 acetate buffer over 24 hours; FIG. 1. The format is physicochemical. The procedure: FIG. 1 is a graph showing the quantity of calcium dissolved on treating hydroxyapatite, which has been previously treated with various concentrations of phytate at pH 7.4, for a period of 24 hours.
(§1) A homogenous suspension of crystalline calcium phosphate in the form of hydroxyapatite in TRIS buffer at pH 7.4 was prepared. This suspension was stirred for 8 hours. Then the crystals obtained were filtered and dried to constant weight. Then these crystals were resuspended at pH 5.0 (in acetate buffer) and the kinetics of dissolution of the salt was determined over 24 hours, continuously stirring the system. The kinetics were followed by determining the quantity of dissolved calcium and phosphorus by atomic emission spectroscopy (using inductively coupled plasma).
This experiment was repeated using concentrations of 1, 6 and 12 uM of phytate during the stage at pH 7.4 with the aim of fixing this compound on the hydroxyapatite structure.

The nature of data set [2]: Dissolution of hydroxyapatite in the presence of phytate at pH 5. The following applies: 12 and 24 uM phytate present in pH 5 stage; over 24 hours; FIG. 2. The format is physicochemical. As for the experimental part:
FIG. 2 is a graph showing the quantity of calcium dissolved on treating hydroxyapatite for a period of 24 hours in the presence of various concentrations of phytate at pH5.
as §1
This experiment was repeated using concentrations of 12 and 24 uM of phytate in the pH 5 stage with the aim of studying the inhibitory effect of dissolution by phytate present in the solution.

Data set [3] is described as follows: Effect of phytate consumption on bone mass, axial densitometry. It is filed as in vivo. The following applies: overall conclusion of the densitometry study. The procedure: A study was carried out evaluating the effect of phytate consumption on the level of bone mass measured by axial densitometry and peripheral heel densitometry. In total, 433 axial densitometer measurements and 1473 peripheral heel densitometer measurements were made. The consumption of phytate by all subjects was evaluated by using a dietetic questionnaire. Subjects were classified into 4 groups (group 1, group 2, group 3 and group 4) according to increasing levels of phytate consumption.

Data set [4] in a line: Adsorption of phytate on hydroxyapatite crystals. The note with it: TRIS buffer pH 7.4, stirred 8 hours. The format is physicochemical. The procedure:
Three homogenous suspensions of crystallised calcium phosphate in the form of hydroxyapatite in TRIS buffer at pH 7.4 were prepared. These suspensions were stirred for 8 hours in the presence of 1, 3 and 12 uM of phytate, respectively. Later, the suspensions were filtered and the amount of phytate adsorbed on the hydroxyapatite crystals was determined by difference between the initial and final phytate in the solution at pH 7.4.

As for `O=P(O)(O)O[C@H]1[C@H](OP(=O)(O)O)[C@@H](OP(=O)(O)O)[C@H](OP(=O)(O)O)[C@@H](OP(=O)(O)O)[C@H]1OP(=O)(O)O` [phytate, myo-inositol hexaphosphate], the “inhibition of dissolution of hydroxyapatite (dissolved calcium)” value in data set [1] and in data set [2] was “capable of inhibiting the dissolution of the salt” in each case. In addition, the “effect of consumption of a diet rich in phytate on bone mass” value in data set [3] was “higher bone mass”. In addition, the “phytate present in the solution remained fixed to the calcium phosphate structure (hydroxyapatite)” value amounted to 62% in data set [4] (1 uM phytate), 66% in data set [4] (3 uM phytate) and 56% in data set [4] (12 uM phytate).

Source of the values: patent publication US8377909B2, “Use of phytate as agent inhibiting dissolution of crystals of calcium salts for the prevention of osteoporosis” (Universitat de les Illes Balears, priority 2006, dated 2013).
